From patent US20210038554A1, “DIETARY BUTYRATE” (SOCIETE DES PRODUITS NESTLE S.A., priority 2018, published 2021)

Key:
[1] = system: rabbit gastric lipase (RGL) followed by porcine pancreatic lipase (PPL); experiment: In vitro sequential digestion SGF followed by SIF, pH-stat; format: in vitro ADME
Protocol: (§1) The lipid emulsion (2 mL) containing 200 mg of fat was subjected to gastrointestinal in vitro lipolysis. […] For gastric digestion, the sample was incubated for 90 minutes with 8.5 mL of simulated gastric fluid (SGF), which consisted of 150 mM NaCl, 450 U/mL pepsin, 18 U/mL rabbit gastric lipase at 37° C. and a pH of 5.5.
The intestinal digestion step was performed in the pH stat where the pH was kept constant at 6.8 by addition of NaOH (0.05 M). […] The intestinal digestion step starts when the temperature reaches 37±0.5° C. The pH was adjusted to pH 6.8 and after incubation of two minutes at this pH and temperature, a pancreatin solution (5 mM tris, 150 mM NaCl at pH 6.8) was added. The final composition of the intestinal fluid was 10 mM CaCl2), 12 mM mixed bile salts, 0.75 mM phospholipid, 150 mM NaCl and 4 mM tris(hydroxymethyl)aminomethane buffer. The intestinal digestion step was carried out for 3 hours in a titration manager from Radiometer. During the intestinal phase of digestion, the kinetics of digestion were followed using a pH-stat (TIM856, Radiometer) technique and expressed as titratable acid (rather than fatty acid) that was calculated by the equation:
TA: Total titratable acid released, mmol; VNaOH: volume of NaOH used to titrate the released acid in 3 h, mL.
(§2) Since the digestion of dietary lipids involves lipases of both gastric and intestinal origin, lipid digestibility was assessed using two digestion models i) simulated intestinal fluid (SIF) with porcine pancreatic lipase (PPL) and ii) sequential digestion in simulated gastric fluid (SGF) with rabbit gastric lipase (RGL) followed by simulated intestinal fluid (SIF) with porcine pancreatic lipase (PPL).

[2] = molecular target: T1, porcine pancreatic lipase (from pancreatin) (Sus scrofa, UniProt P00591); experiment: In vitro digestion, simulated intestinal fluid (SIF) model, pH-stat; format: in vitro ADME; settings: SIF alone; 200 mg fat emulsion, pH 6.8, 37° C.
T1 construct: pancreatin (Porcine, USP×8, P7585); purchased Sigma-Aldrich P7585; host or cells: porcine pancreas extract (pancreatin)
T1 sequence (P00591 1-450): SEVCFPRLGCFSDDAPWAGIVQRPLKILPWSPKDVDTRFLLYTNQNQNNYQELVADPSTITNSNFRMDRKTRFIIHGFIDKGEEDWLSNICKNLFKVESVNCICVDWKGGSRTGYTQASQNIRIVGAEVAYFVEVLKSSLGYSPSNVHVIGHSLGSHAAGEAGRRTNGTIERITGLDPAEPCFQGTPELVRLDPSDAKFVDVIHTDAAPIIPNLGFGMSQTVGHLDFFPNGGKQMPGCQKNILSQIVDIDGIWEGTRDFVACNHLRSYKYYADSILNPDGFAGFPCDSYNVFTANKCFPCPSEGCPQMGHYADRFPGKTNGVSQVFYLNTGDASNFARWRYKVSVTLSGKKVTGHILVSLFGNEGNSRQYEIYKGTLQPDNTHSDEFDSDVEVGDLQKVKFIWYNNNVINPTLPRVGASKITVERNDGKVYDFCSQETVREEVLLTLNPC
T1 sequence (P02703 23-112 partner): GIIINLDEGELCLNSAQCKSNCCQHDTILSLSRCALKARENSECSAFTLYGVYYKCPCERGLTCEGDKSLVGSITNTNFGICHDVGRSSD
Protocol: as §1
The intestinal digestion step was performed in the pH stat where the pH was kept constant at 6.8 by addition of NaOH (0.05 M). […] The intestinal digestion step starts when the temperature reaches 37±0.5° C. The pH was adjusted to pH 6.8 and after incubation of two minutes at this pH and temperature, a pancreatin solution (5 mM tris, 150 mM NaCl at pH 6.8) was added. […] During the intestinal phase of digestion, the kinetics of digestion were followed using a pH-stat (TIM856, Radiometer) technique and expressed as titratable acid (rather than fatty acid) that was calculated by the equation: […]
as §2

SMILES: CCCC(=O)OCC(COC(=O)CCC)OC(=O)CCC [tributyrin]
- initial lipolysis rate in SIF after SGF ([1]; SGF-SIF sequential digestion, 200 mg fat emulsion): 44.1 ± 8.8 µmol/min
- extent of hydrolysis in the stomach (gastric lipolysis) ([1]; in words): extensive hydrolysis in the stomach
- lipolysis by gastric lipase ([1]; indicated by decreased total fatty acid release in SIF after RGL in SGF): ~60%
- initial rate of lipolysis [2]: 223 ± 59 µmol/min
